Experimental data published in PMC3608651, “A Broad Profile of Co-Dominant Epitopes Shapes the Peripheral Mycobacterium tuberculosis Specific CD8+ T-Cell Immune Response in South African Patients with Active Tuberculosis” (PLoS ONE, 2013).
Read-outs that look alike come from different tables or passages of the source.

Assays:
Type in all cases: binding
HLA-C*07:01 = HLA-C*07:01 (Homo sapiens, UniProt P10321, K90N/S123Y); settings: duplicated experiments, positive binder >40%
HLA-A*68:01 [1] = biological target: T1, HLA-A*68:01 (Homo sapiens, UniProt P04439, A269V/D185E/E176V/E277Q/E87N/F33Y/G231S/I121M/I166T/I218V/L180W/L300P/L318F/N151K/P208A/P217A/Q86R/R169H/T345S); settings: duplicated experiments, positive binder >40%
HLA-B*58:01 [2] = biological target: T2, HLA-B*58:01 (Homo sapiens, UniProt P01889, A329T/C349S/D201E/D98Y/E176V/E187L/E204Q/E69T/G107R/I218V/I90N/K202T/L105A/L119I/N104I/N87E/Q89R/Q94S/R106L/R155S/R180L/R86G/S101N/S121R/S35A/S48A/T118I/V127L/V306I/V36M/Y140S/Y91M); settings: duplicated experiments, positive binder >40%
HLA-A*68:01 [3] = biological target: T1, HLA-A*68:01; settings: time points 0-8 h
HLA-A*68:01 [4] = biological target: T1, HLA-A*68:01
HLA-B*58:01 [5] = biological target: T2, HLA-B*58:01
HLA-B*58:01 [6] = biological target: T2, HLA-B*58:01; settings: time points 0-8 h
HLA-A*24:02 = HLA-A*24:02 (Homo sapiens, UniProt P04439, D101N/D140Y/D185E/E176V/E190D/F33S/G103R/G107R/I119L/I121M/I306V/K335N/L105A/L180Q/L300P/N151K/N90K/Q86E/Q94H/R106L/R138H/R89G/T104I/T345S/V100E/W191G/Y123F); settings: duplicated experiments, positive binder >40%
HLA-A*30:02 [7] = biological target: T3, HLA-A*30:02 (Homo sapiens, UniProt P04439, D101N/D140H/D185E/E176R/F33S/G80R/H175R/K168Q/Q94H/R138E/R41S/V100E); settings: duplicated experiments, positive binder >40%
HLA-A*02:01 = HLA-A*02:01 (Homo sapiens, UniProt P04439, D140Y/D185E/D98H/E176V/E277Q/G131W/G231S/I119V/I121R/I166T/I218V/L300P/L318F/N151K/N90K/P208A/P217A/Q86G/Q94H/R138H/R169H/T345S); settings: plate-bound monomer 0.5 µg/ml, duplicated experiments, positive binder >40%
HLA-B*07:02 = HLA-B*07:02 (Homo sapiens, UniProt P01889); settings: percent relative the binding of positive control peptide […]; duplicated experiments; positive binder >40%
HLA-A*30:01 = HLA-A*30:01 (Homo sapiens, UniProt P04439, D140H/D185E/E176W/F33S/G80R/H175R/K168Q/R138E/R41S); settings: duplicated experiments, positive binder >40%
HLA-A*30:02 [8] = biological target: T3, HLA-A*30:02
HLA-A*30:02 [9] = biological target: T3, HLA-A*30:02; settings: time points 0-8 h
[10] = percent relative the binding of positive control peptide […]
[11] = peptide titrated 10−4 to 10−9 M
[12] = percent relative the binding of positive control peptide RYLKDQQLL
[13] = percent relative the binding of positive control peptide KIQNFRVYY
[14] = percent relative the binding of positive control peptide FLPSDFFPSV
[15] = percent relative the binding of positive control peptide KYFDEHYEY
[16] = percent relative the binding of positive control peptide KTGGPIYKR
[17] = percent relative the binding of positive control peptide IAMESIVIW
[18] = percent relative the binding of positive control peptide KTKDIVNGL

Row | Substance | Bind C*07:01 (HLA-C*07:01; [10]) [%] | Bind A*68:01 (HLA-A*68:01 [1]; [10]) [%] | Bind B*58:01 (HLA-B*58:01 [2]; [10]) [%] | Aff B*58:01 (ED50) (HLA-B*58:01 [5]) | O-rate B*58:01 (t1/2) (HLA-B*58:01 [6]) [h] | Bind A*24:02 (HLA-A*24:02; [10]) [%] | Bind A*30:02 (HLA-A*30:02 [7]; [10]) [%] | Bind A*02:01 (HLA-A*02:01; [10]) [%] | Bind B*07:02 (HLA-B*07:02) [%] | Bind A*30:01 (HLA-A*30:01; [10]) [%] | O-rate A*30:02 (t1/2) (HLA-A*30:02 [9]) [h] | also measured
1 | MAMMARDTA [Rv0288_81–89] | 19 | 96 | 23 |  |  |  |  |  |  |  |  | O-rate A*68:01 (t1/2) (HLA-A*68:01 [3]): 2.0 h; Aff A*68:01 (ED50) (HLA-A*68:01 [4]): 5000 nM
2 | QAALQSAWQ [Rv0288_36–44] | 7 | 17 | 62 | 5e-05 M | 0.5 |  |  |  |  |  |  | 
3 | AAGGHNAVF | 39 | 0 | 101 | 2e-07 M | 0.7 | 34 | 67 | 31 | 9 | 15 |  | 
4 | YQAWQAQWN [Rv0288_51–59] | 0 | 23 | 52 | 2e-06 M | 2.0 |  |  |  |  |  |  | 
5 | RAYHSMSST [Rv0288_67–75m1] | 0 |  | 32 | 2e-08 M | 0.4 |  | 7 |  | 14 |  |  | 
6 | TMAMMARDT [Rv0288_80–88] | 0 | 47 | 0 |  |  |  |  |  |  |  |  | O-rate A*68:01 (t1/2) (HLA-A*68:01 [3]): 2.7 h; Aff A*68:01 (ED50) (HLA-A*68:01 [4]): 60000 nM
7 | SSTHEANTM [Rv0288_73–81] | 7 | 0 | 41 | 2e-06 M | 0.8 |  |  |  |  |  |  | 
8 | AGCQTYKW E | 0 | 4 | 121 | 2e-07 M | 2 | 31 | 18 | 12 | 2 | 3 |  | 
9 | DTGITYQAW [Rv0288_46–54] | 0 | 7 | 41 | 1e-06 M | 2.3 |  |  |  |  |  |  | 
10 | TYQAWQAQW [Rv0288_50–58] | 0 | 0 | 119 | 1e-07 M | 1.0 |  |  |  |  |  |  | 
11 | NGT HSWEYW | 3 | 35 | 74 | 4E -08 M | 1.9 | 42 | 83 | 0 | 4 | 0 | 1.6 | Aff A*30:02 (ED50) (HLA-A*30:02 [8]): 1e-06 M
12 | SLTKLAAAW [Rv3875_35–43] |  |  |  |  | 0.9 |  |  |  | 5 |  |  | Aff B*58:01 (ED50) (HLA-B*58:01 [5]; [11]): 4e-07 M; Bind A*24:02 (HLA-A*24:02; [12]): 12%; Bind A*30:02 (HLA-A*30:02 [7]; [13]): 50%; Bind A*02:01 (HLA-A*02:01; [14]): 47%; Bind C*07:01 (HLA-C*07:01; [15]): 8%; Bind A*68:01 (HLA-A*68:01 [1]; [16]): 10%; Bind B*58:01 (HLA-B*58:01 [2]; [17]): 48%; Bind A*30:01 (HLA-A*30:01; [18]): 6%
13 | AYHPQQFIY | 43 | 5 | 35 |  |  | 60 | 111 | 13 | 0 | 6 | 1.9 | Aff A*30:02 (ED50) (HLA-A*30:02 [8]): 1E -07 M
14 | RAQDDYNGW | 2 | 2 | 41 |  |  | 65 | 119 | 0 | 0 | 11 | 1.2 | Aff A*30:02 (ED50) (HLA-A*30:02 [8]): 5e-07 M
15 | GQSSFYSDW | 0 | 0 | 62 |  |  | 76 | 71 | 27 | 0 | 0 | 3.3 | Aff A*30:02 (ED50) (HLA-A*30:02 [8]): 2e-08 M
16 | LTKLAAAWG [Rv3875_36-44] |  |  |  |  | 1.2 |  |  |  | 6 |  |  | Aff B*58:01 (ED50) (HLA-B*58:01 [5]; [11]): 7e-07 M; Bind A*24:02 (HLA-A*24:02; [12]): 0%; Bind A*30:02 (HLA-A*30:02 [7]; [13]): 0%; Bind A*02:01 (HLA-A*02:01; [14]): 15%; Bind C*07:01 (HLA-C*07:01; [15]): 13%; Bind A*68:01 (HLA-A*68:01 [1]; [16]): 21%; Bind B*58:01 (HLA-B*58:01 [2]; [17]): 47%; Bind A*30:01 (HLA-A*30:01; [18]): 13%
17 | LQNLARTIS [Rv3875_69–77] |  |  |  |  |  |  |  |  | 10 |  | 2.1 | Bind A*24:02 (HLA-A*24:02; [12]): 26%; Bind A*30:02 (HLA-A*30:02 [7]; [13]): 77%; Bind A*02:01 (HLA-A*02:01; [14]): 27%; Aff A*30:02 (ED50) (HLA-A*30:02 [8]; [11]): 1e-08 M; Bind C*07:01 (HLA-C*07:01; [15]): 3%; Bind A*68:01 (HLA-A*68:01 [1]; [16]): 8%; Bind B*58:01 (HLA-B*58:01 [2]; [17]): 20%; Bind A*30:01 (HLA-A*30:01; [18]): 11%
18 | TGITYQAWQ [Rv0288_47–55] | 0 | 8 | 40 | 4e-06 M | 0.8 |  |  |  |  |  |  | 
19 | GITYQAWQA [Rv0288_48–56] | 0 | 0 | 46 | 9e-08 M | 0.2 |  |  |  |  |  |  | 
20 | SAWQGDTGI [Rv0288_41–49] | 12 | 30 | 46 | 3e-08 M | 0.6 |  |  |  |  |  |  | 
21 | WGGSGSEAY [Rv3875_43–51] |  |  |  |  |  |  |  |  | 7 |  | 1.1 | Bind A*24:02 (HLA-A*24:02; [12]): 0%; Bind A*30:02 (HLA-A*30:02 [7]; [13]): 89%; Bind A*02:01 (HLA-A*02:01; [14]): 3%; Aff A*30:02 (ED50) (HLA-A*30:02 [8]; [11]): 4e-07 M; Bind C*07:01 (HLA-C*07:01; [15]): 21%; Bind A*68:01 (HLA-A*68:01 [1]; [16]): 2%; Bind B*58:01 (HLA-B*58:01 [2]; [17]): 2%; Bind A*30:01 (HLA-A*30:01; [18]): 18%
22 | MSQIMYNYP [Rv0288_1–9] | 10 | 29 | 57 | 4e-06 M | 1.1 |  |  |  |  |  |  | 
23 | LVANNT RLW | 26 | 38 | 50 |  |  | 88 | 68 | 21 | 50 | 2 | 0.5 | Aff A*30:02 (ED50) (HLA-A*30:02 [8]): 5e-07 M
